Data on twelve molecules can be found in patent US8540966B2, “Contrast agents endowed with high relaxivity” (Bracco Imaging S.p.A., priority 2004, dated 2013).

One series can be described thus: Relaxivity determination (r1p) at 20 MHz, 298K, pH 7. Particulars: 298K, 20 MHz, pH 7; q=1 Gd complexes derived from the DTPA-monophosphonate backbone (Table 5). It counts as physicochemical. Here is the method:
As far as the relaxation enhancement property is concerned, a paramagnetic Gd(III) complex is characterized by its relaxivity (r1p) which represents the increase of the proton relaxation rate of an aqueous solution of the Gd(III) complex in comparison to the proton relaxation rate of neat water (R1°). The relaxivity is usually measured at 298K and 20 MHz (0.5 T).
In order to best evaluate the relaxivity properties and the parameters affecting the relaxivity of the agents of the invention, some comparative tests have been performed. In a first experiment, the relaxivity of a number of Gd-based chelated compounds having different molecular weight, all derived from the following [Gd(DTPA-monophosphonate)]^3− basic backbone structure (r1p at 20 MHz and 298K: 6.1 mM^−1 s^−1) of formula
Tested compounds include the Gd-complex of the chelating compounds 1b and 2b of the invention (hereinafter Gd-1b and Gd-2b) as well as a number of different derivatives of the aforementioned backbone moiety selected in order to cover a range of molecular weights of up to about 1800 Dalton. The relaxivity of all of the tested compounds were measured at 298K and 20 MHz and pH 7. The obtained values, listed in table 5 below (together with the structure of the compounds) have also been plotted against the MW of the complexes (see FIG. 1).
A second experiment was performed to test the relaxivity of different compounds of the invention, marketed NSA, known LDA and other systems, all containing one coordinated water molecule (q=1). The data were registered at 298K and 20 MHz and pH=7, and plotted against their corresponding MW. Relaxivity data relating to LDA P760 and P792 (LDA contrast agents) are based on literature cited below.
(§1) Conversely, the relaxivity improvement shown by the blood pool agent rapidly falls dawn over the same range of magnetic field strength. In addition to the above, please find below as per table 7, other relaxivity values, measured as above indicated, for some other representative compounds of the invention.
For the molecule `O=C(O)CN(CCN(CCN(CC(=O)O)[C@@H](Cc1ccccc1)C(=O)O)CP(=O)(O)O)[C@@H](Cc1ccccc1)C(=O)O` [B 22606], the “R1p (relaxivity)” value was determined as 7.7 mM⁻¹ s⁻¹.

In the case of `O=C(O)CN(CCN(CCN(CC(=O)O)[C@@H](COCc1ccccc1)C(=O)O)CP(=O)(O)O)[C@@H](COCc1ccccc1)C(=O)O` [B 22666], the “R1p (relaxivity)” value worked out at 7.9 mM⁻¹ s⁻¹.

Consider `O=C(O)CN(CCN(CCN(CC(=O)O)[C@@H](Cc1c[nH]c2ccccc12)C(=O)O)CP(=O)(O)O)C(Cc1c[nH]c2ccccc12)C(=O)O` (stereo partly drawn) [B 22836], for which the “R1p (relaxivity)” value was 7.9 mM⁻¹ s⁻¹.

The series is the same for the next values; noted with them: 298K, 20 MHz, pH=7; q=1 complexes (Table 6).
Turning to `O=C(O)CN1CCN(CC(=O)O)CCN(C(COCc2ccccc2)C(=O)O)CCN(CC(=O)O)CC1` (stereo not drawn) [Compound B19106], the “R1p (relaxivity)” value came to 5.5 mM⁻¹ s⁻¹.

Turning to `O=C(O)CN1CCN(C(COCc2ccccc2)C(=O)O)CCN(CC(=O)O)CCN(C(COCc2ccccc2)C(=O)O)CC1` (stereo not drawn) [Compound B19236], the “R1p (relaxivity)” value amounted to 6.5 mM⁻¹ s⁻¹.

As to `O=C(O)CN1CCN(C(COCc2ccccc2)C(=O)O)CCN(C(COCc2ccccc2)C(=O)O)CCN(C(COCc2ccccc2)C(=O)O)CC1` (stereo not drawn) [Compound B19406], the “R1p (relaxivity)” value came out at 7.5 mM⁻¹ s⁻¹.

For the molecule `O=C(O)CN1CCN(CC(=O)O)CCN(CC(=O)O)CCN(CC(=O)O)CC1` [Gd-DOTA], the “R1p (relaxivity)” value was determined as 4.7 mM⁻¹ s⁻¹.

With `O=C(O)CN(CCN(CC(=O)O)CC(=O)O)CCN(CC(=O)O)CC(=O)O` [Gd-DTPA], the “R1p (relaxivity)” value amounted to 4.7 mM⁻¹ s⁻¹.

The same series, now with this note: measured as above indicated: 298K, 20 MHz (Table 7).
For the molecule `O=C(O)CCC(C(=O)O)N1CCN(Cc2cccc(C(=O)NCC(CNC(=O)C(O)C(O)C(O)C(O)CO)(CNC(=O)C(O)C(O)C(O)C(O)CO)CNC(=O)C(O)C(O)C(O)C(O)CO)c2)CCN(C(CCC(=O)O)C(=O)O)CCN(C(CCC(=O)O)C(=O)O)CC1` (stereo not drawn) [Gd-1d], the “R1p (relaxivity)” value came out at 24 mM⁻¹ s⁻¹.

Consider `O=C(CC[C@@H](C(=O)O)N1CCN([C@@H](CCC(=O)NC(COC2OC(CO)C(O)C(O)C2O)(COC2OC(CO)C(O)C(O)C2O)COC2OC(CO)C(O)C(O)C2O)C(=O)O)CCN([C@@H](CCC(=O)NC(COC2OC(CO)C(O)C(O)C2O)(COC2OC(CO)C(O)C(O)C2O)COC2OC(CO)C(O)C(O)C2O)C(=O)O)CCN([C@@H](CCC(=O)NC(COC2OC(CO)C(O)C(O)C2O)(COC2OC(CO)C(O)C(O)C2O)COC2OC(CO)C(O)C(O)C2O)C(=O)O)CC1)NC(COC1OC(CO)C(O)C(O)C1O)(COC1OC(CO)C(O)C(O)C1O)COC1OC(CO)C(O)C(O)C1O` (stereo partly drawn) [Gd-7c], for which the “R1p (relaxivity)” value stood at 20.4 mM⁻¹ s⁻¹.

For `CC1(N(CC(=O)O)CC(=O)O)CN(C(CCC(=O)N(CCN(CCC(=O)NC(CO)(CO)CO)CCC(=O)NC(CO)(CO)CO)CCN(CCC(=O)NC(CO)(CO)CO)CCC(=O)NC(CO)(CO)CO)C(=O)O)CCN(C(CCC(=O)N(CCN(CCC(=O)NC(CO)(CO)CO)CCC(=O)NC(CO)(CO)CO)CCN(CCC(=O)NC(CO)(CO)CO)CCC(=O)NC(CO)(CO)CO)C(=O)O)C1` (stereo not drawn) [Gd-15a], the “R1p (relaxivity)” value came out at 16.7 mM⁻¹ s⁻¹.

A short description of another series: 1/T1 NMRD profiles: relaxivity over a range of magnetic field strength. Particulars: from 0.2 to 3 MHz; 25° C., 1 mM aqueous solution (FIG. 6). It counts as physicochemical. Here is the method:
As an example, the relaxivity profile of the gadolinium complex of the chelating ligand of the invention 2b (hereinafter referred to as Gd-2b), in the above magnetic field range, has been compared with that of a marketed NSA, i.e. Magnevist®, and that of a blood pool agent, i.e. the macromolecular adduct between Gd-DTPA(BOM)3 and BSA (Bovine Serum Albumin) (FIG. 6).
The corresponding profile for the above blood pool agent is quite different.
A further test was performed in which the relaxivity values r1p, shown by the compounds of the invention as measured at 20 MHz and 298K, were plotted against the molecular reorientational values τR of the same compounds. The stability of the relaxivity properties shown by the compounds of the invention was tested. In a first experiment, the 1/T1 NMRD profiles for some compounds of the invention were acquired over a range of magnetic field strengths ranging from 0.01 to 130 MHz. […]
as §1
As to Gd-DTPA, the “relaxivity profile versus field strength” value was “quite stable though very low”.
